Reference: PubChem BioAssay (NCI)
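Cells were grown in 96-well plates and exposed to each compound for 48 hours at five concentrations; endpoints were interpolated linearly between bracketing concentrations, or set to the highest concentration if not reached. Abbreviation: GI50, concentration required for 50% inhibition of growth. Definition used: TGI = concentration required for complete inhibition of growth.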

Key:
Assay in all cases: inhibition of tumour cell growth, NCI panel, 48 h
CAKI-1 renal = tested on: CAKI-1 renal
U251 CNS = tested on: U251 CNS
HS 578T breast = tested on: HS 578T breast
HCT-116 colon = tested on: HCT-116 colon
HT29 colon = tested on: HT29 colon
SW-620 colon = tested on: SW-620 colon
SNB-75 CNS = tested on: SNB-75 CNS
RXF 393 renal = tested on: RXF 393 renal
NCI/ADR-RES ovarian = tested on: NCI/ADR-RES ovarian
UO-31 renal = tested on: UO-31 renal
K-562 leukemia = tested on: K-562 leukemia
A549 NSCLC = tested on: A549 NSCLC
HOP-92 NSCLC = tested on: HOP-92 NSCLC
CCRF-CEM leukemia = tested on: CCRF-CEM leukemia
UACC-257 melanoma = tested on: UACC-257 melanoma
SF-268 CNS = tested on: SF-268 CNS
SK-MEL-28 melanoma = tested on: SK-MEL-28 melanoma
BT-549 breast = tested on: BT-549 breast
EKVX NSCLC = tested on: EKVX NSCLC
MDA-MB-231 breast = tested on: MDA-MB-231 breast
SN12C renal = tested on: SN12C renal
OVCAR-4 ovarian = tested on: OVCAR-4 ovarian
SF-295 CNS = tested on: SF-295 CNS
SK-MEL-2 melanoma = tested on: SK-MEL-2 melanoma
HOP-62 NSCLC = tested on: HOP-62 NSCLC
A498 renal = tested on: A498 renal
SK-OV-3 ovarian = tested on: SK-OV-3 ovarian
OVCAR-3 ovarian = tested on: OVCAR-3 ovarian
SNB-19 CNS = tested on: SNB-19 CNS

## NC(N)=N/N=C(/c1ccccc1)c1ccccc1F
CAKI-1 renal
  GI50: 4.26 µM
  TGI: 31.4 µM
U251 CNS
  GI50: 2640 nM
  TGI: 13.3 µM
HS 578T breast
  GI50: 2790 nM
  TGI: 11.6 µM
HCT-116 colon
  GI50: 2370 nM
  TGI: 12.3 µM
HT29 colon
  GI50: 628 nM
  TGI: 11.5 µM
SW-620 colon
  GI50: 2750 nM
  TGI: 21.1 µM
SNB-75 CNS
  GI50: 661 nM
  TGI: 21.7 µM
RXF 393 renal
  GI50: 3000 nM
  TGI: 13.9 µM
NCI/ADR-RES ovarian
  GI50: 2690 nM
  TGI: 9.74 µM
UO-31 renal
  GI50: 4.48 µM
  TGI: 31.6 µM
K-562 leukemia
  GI50: 1320 nM
  TGI: > 100 µM
A549 NSCLC
  GI50: 4.51 µM
  TGI: 36.8 µM
HOP-92 NSCLC
  GI50: 18.3 µM
  TGI: > 81.5 µM
CCRF-CEM leukemia
  GI50: 5.08 µM
  TGI: > 100 µM
UACC-257 melanoma
  GI50: 15.8 µM
  TGI: 38.1 µM
SF-268 CNS
  GI50: 5.48 µM
  TGI: 26.9 µM
SK-MEL-28 melanoma
  GI50: 4.69 µM
  TGI: 21.4 µM
BT-549 breast
  GI50: 5.11 µM
  TGI: 23.6 µM
EKVX NSCLC
  GI50: 6.89 µM
  TGI: 53 µM
MDA-MB-231 breast
  GI50: 3.34 µM
  TGI: 11.8 µM
SN12C renal
  GI50: 5.98 µM
  TGI: 31.3 µM
OVCAR-4 ovarian
  GI50: 1730 nM
  TGI: 32 µM
SF-295 CNS
  GI50: 2430 nM
  TGI: 14.3 µM
SK-MEL-2 melanoma
  GI50: 12.2 µM
  TGI: 36.7 µM
HOP-62 NSCLC
  GI50: 4.62 µM
  TGI: 18.2 µM
A498 renal
  GI50: 2280 nM
  TGI: 9.44 µM
SK-OV-3 ovarian
  GI50: 4.82 µM
  TGI: 37.9 µM
OVCAR-3 ovarian
  GI50: 2100 nM
  TGI: 7.55 µM
SNB-19 CNS
  GI50: 4.19 µM
  TGI: 31.3 µM
